Patent EP4596537A1, “NOVEL FLUORENE DERIVATIVE COMPOUND AND USE THEREOF” (JD Bioscience Inc., priority 2022, dated 2024)

What follows are compounds tested on PDHE1α S293 (assay: In vitro PDH S293 phosphorylation inhibition (Western blot) in HEK293 cells). Conditions: Homo sapiens, 5 hours.
Type: cell-based, human
Method: HEK293 cells, which are human embryonic kidney cells, were seeded at a density of 2 × 10^6 in a 60 mm dish, and cultured for 24 hours. After replacing the medium with a medium comprising 0.5% FBS, the compounds prepared according to Examples 1 to 54 were treated at various concentrations. 5 hours later, the cells were scraped off and collected into a 15 mL conical tube and centrifuged at 1500 rpm for 10 minutes. The supernatant was discarded, the resultant was washed with 1× PBS, and transferred to a 1.5 mL e-tube, followed by centrifugation at 10,000 rpm for 5 minutes. The supernatant was discarded again, a lysis buffer was added, and the cells were lysed on ice for 30 minutes. The cells were vortexed every 10 minutes to completely lyse, and centrifuged again at 10,000 rpm for 15 minutes at 4°C, and the supernatant was collected. The protein in the supernatant was quantified using BCA technique, and the sample buffer was added to 20 µg of protein and allowed to react at 70°C for 5 minutes. The expression of PDHE1α S232, S293, S300, and total PDHE1α proteins was detected by Western blot, and the resulting PDH S293 phosphorylation inhibition is shown in Table 6. […]
`COc1cc(-c2cnn(C(C)C(=O)NNc3ccc(F)cc3)c2)c2c(c1)C(O)(C(F)(F)F)c1ccccc1-2` (stereo not shown) [Example 2, N'-(4-fluorophenyl)-2-(4-(9-hydroxy-2-methoxy-9-(trifluoromethyl)-9H-fluoren-4-yl)-1H-pyrazol-1-yl)propanehydrazide] was tested, and the inhibition at 1 µM was ≥ 50%.
For `CC(C(=O)NNc1ccc(S(C)(=O)=O)cc1F)n1cc(-c2cc(F)cc3c2-c2ccccc2C3(O)C(F)(F)F)cn1` (stereo not shown) [Example 3, N'-(2-fluoro-4-(methylsulfonyl)phenyl)-2-(4-(2-fluoro-9-hydroxy-9-(trifluoromethyl)-9H-fluoren-4-yl)-1H-pyrazol-1-yl)propanehydrazide], the inhibition at 1 µM was ≥ 50%.
`CC(C(=O)NNc1ccccc1)n1cc(-c2cc(F)cc3c2-c2ccccc2C3(O)C(F)(F)F)cn1` (stereo not shown) [Example 4, 2-(4-(2-fluoro-9-hydroxy-9-(trifluoromethyl)-9H-fluoren-4-yl)-1H-pyrazol-1-yl)-N'-phenylpropanehydrazide] was tested, and the inhibition at 1 µM was ≥ 80%.
In the case of `CC(C(=O)NNc1cccc2ccccc12)n1cc(-c2cc(F)cc3c2-c2ccccc2C3(O)C(F)(F)F)cn1` (stereo not shown) [Example 5, 2-(4-(2-fluoro-9-hydroxy-9-(trifluoromethyl)-9H-fluoren-4-yl)-1H-pyrazol-1-yl)-N'-(naphthalen-1-yl)propanehydrazide], the inhibition at 1 µM was ≥ 50%.
For `CC(C(=O)NNc1ccccc1Cl)n1cc(-c2cc(F)cc3c2-c2ccccc2C3(O)C(F)(F)F)cn1` (stereo not shown) [Example 6, N'-(2-chlorophenyl)-2-(4-(2-fluoro-9-hydroxy-9-(trifluoromethyl)-9H-fluoren-4-yl)-1H-pyrazol-1-yl)propanehydrazide], the inhibition at 1 µM was ≥ 50%.
For `CC(C(=O)NNc1ccc(Cl)cc1)n1cc(-c2cc(F)cc3c2-c2ccccc2C3(O)C(F)(F)F)cn1` (stereo not shown) [Example 7, N'-(4-chlorophenyl)-2-(4-(2-fluoro-9-hydroxy-9-(trifluoromethyl)-9H-fluoren-4-yl)-1H-pyrazol-1-yl)propanehydrazide], the inhibition at 1 µM was ≥ 50%.
`CC(C(=O)NNc1ccccn1)n1cc(-c2cc(F)cc3c2-c2ccccc2C3(O)C(F)(F)F)cn1` (stereo not shown) [Example 8, 2-(4-(2-fluoro-9-hydroxy-9-(trifluoromethyl)-9H-fluoren-4-yl)-1H-pyrazol-1-yl)-N'-(pyridin-2-yl)propanehydrazide] was tested, and the inhibition at 1 µM was ≥ 80%.
With `COc1cc(-c2cnn(C(C)C(=O)NNc3ccc(S(C)(=O)=O)cc3F)c2)c2c(c1)C(O)(C(F)(F)F)c1ccccc1-2` (stereo not shown) [Example 9, N'-(2-fluoro-4-(methylsulfonyl)phenyl)-2-(4-(9-hydroxy-2-methoxy-9-(trifluoromethyl)-9H-fluoren-4-yl)-1H-pyrazol-1-yl)propanehydrazide] the inhibition at 1 µM was ≥ 80%.
For `COc1cc(-c2cnn(C(C)C(=O)NNc3ccc(Cl)cc3)c2)c2c(c1)C(O)(C(F)(F)F)c1ccccc1-2` (stereo not shown) [Example 10, N'-(4-chlorophenyl)-2-(4-(9-hydroxy-2-methoxy-9-(trifluoromethyl)-9H-fluoren-4-yl)-1H-pyrazol-1-yl)propanehydrazide], the inhibition at 1 µM was ≥ 50%.
With `COc1cc(-c2cnn(C(C)C(=O)NNc3cccc4ccccc34)c2)c2c(c1)C(O)(C(F)(F)F)c1ccccc1-2` (stereo not shown) [Example 11, 2-(4-(9-hydroxy-2-methoxy-9-(trifluoromethyl)-9H-fluoren-4-yl)-1H-pyrazol-1-yl)-N'-(naphthalen-1-yl)propanehydrazide] the inhibition at 1 µM was ≥ 50%.
For `COc1cc(-c2cnn(C(C)C(=O)NNc3ccccc3Cl)c2)c2c(c1)C(O)(C(F)(F)F)c1ccccc1-2` (stereo not shown) [Example 12, N'-(2-chlorophenyl)-2-(4-(9-hydroxy-2-methoxy-9-(trifluoromethyl)-9H-fluoren-4-yl)-1H-pyrazol-1-yl)propanehydrazide], the inhibition at 1 µM was ≥ 50%.
In the case of `CC(C(=O)NNc1ccccc1F)n1cc(-c2cc(F)cc3c2-c2ccccc2C3(O)C(F)(F)F)cn1` (stereo not shown) [Example 13, 2-(4-(2-fluoro-9-hydroxy-9-(trifluoromethyl)-9H-fluoren-4-yl)-1H-pyrazol-1-yl)-N'-(2-fluorophenyl)propanehydrazide], the inhibition at 1 µM was ≥ 50%.
`CC(C(=O)NNc1ccc(C(=O)O)cn1)n1cc(-c2cc(F)cc3c2-c2ccccc2C3(O)C(F)(F)F)cn1` (stereo not shown) [Example 14, 6-(2-(2-(4-(2-fluoro-9-hydroxy-9-(trifluoromethyl)-9H-fluoren-4-yl)-1H-pyrazol-1-yl)propanoyl)hydrazinyl)nicotinic acid] was tested, and the inhibition at 1 µM was ≥ 50%.
In the case of `COc1cc(-c2cnn(C(C)C(=O)NNc3ccc(C(=O)OC(C)(C)C)cn3)c2)c2c(c1)C(O)(C(F)(F)F)c1ccccc1-2` (stereo not shown) [Example 15, tert-butyl 6-(2-(2-(4-(9-hydroxy-2-methoxy-9-(trifluoromethyl)-9H-fluoren-4-yl)-1H-pyrazol-1-yl)propanoyl)hydrazinyl)nicotinate], the inhibition at 1 µM was ≥ 50%.
With `COc1cc(-c2cnn(C(C)C(=O)NNc3ccc(C(=O)O)cn3)c2)c2c(c1)C(O)(C(F)(F)F)c1ccccc1-2` (stereo not shown) [Example 16, 6-(2-(2-(4-(9-hydroxy-2-methoxy-9-(trifluoromethyl)-9H-fluoren-4-yl)-1H-pyrazol-1-yl)propanoyl)hydrazinyl)nicotinic acid] the inhibition at 1 µM was ≥ 50%.
`COc1cc(-c2cnn(C(C)C(=O)NNc3ccccn3)c2)c2c(c1)C(O)(C(F)(F)F)c1ccccc1-2` (stereo not shown) [Example 17, 2-(4-(9-hydroxy-2-methoxy-9-(trifluoromethyl)-9H-fluoren-4-yl)-1H-pyrazol-1-yl)-N'-(pyridin-2-yl)propanehydrazide] was tested, and the inhibition at 1 µM was ≥ 50%.
With `O=C(Cn1cc(-c2cc(F)cc3c2-c2ccccc2C3(O)C(F)(F)F)cn1)NNc1ccccn1` (stereo not shown) [Example 18, 2-(4-(2-fluoro-9-hydroxy-9-(trifluoromethyl)-9H-fluoren-4-yl)-1H-pyrazol-1-yl)-N'-(pyridin-2-yl)acetohydrazide] the inhibition at 1 µM was ≥ 80%.
In the case of `CC(C)(C)OC(=O)c1ccc(NNC(=O)Cn2cc(-c3cc(F)cc4c3-c3ccccc3C4(O)C(F)(F)F)cn2)nc1` (stereo not shown) [Example 19, tert-butyl 6-(2-(2-(4-(2-fluoro-9-hydroxy-9-(trifluoromethyl)-9H-fluoren-4-yl)-1H-pyrazol-1-yl)acetyl)hydrazinyl)nicotinate], the inhibition at 1 µM was ≥ 50%.
`O=C(Cn1cc(-c2cc(F)cc3c2-c2ccccc2C3(O)C(F)(F)F)cn1)NNc1ccc(C(=O)O)cn1` (stereo not shown) [Example 20, 6-(2-(2-(4-(2-fluoro-9-hydroxy-9-(trifluoromethyl)-9H-fluoren-4-yl)-1H-pyrazol-1-yl)acetyl)hydrazinyl)nicotinic acid] was tested, and the inhibition at 1 µM was ≥ 50%.
`O=C(Cn1cc(-c2cc(F)cc3c2-c2ccccc2C3(O)C(F)(F)F)cn1)NNc1ccc(F)cc1` (stereo not shown) [Example 21, 2-(4-(2-fluoro-9-hydroxy-9-(trifluoromethyl)-9H-fluoren-4-yl)-1H-pyrazol-1-yl)-N'-(4-fluorophenyl)acetohydrazide] was tested, and the inhibition at 1 µM was ≥ 50%.
For `CC(C(=O)NNc1ccc(S(C)(=O)=O)cc1)n1cc(-c2cc(F)cc3c2-c2ccccc2C3(O)C(F)(F)F)cn1` (stereo not shown) [Example 22, 2-(4-(2-fluoro-9-hydroxy-9-(trifluoromethyl)-9H-fluoren-4-yl)-1H-pyrazol-1-yl)-N'-(4-(methylsulfonyl)phenyl)propanehydrazide], the inhibition at 1 µM was ≥ 50%.
`COc1cc(-c2cnn(C(C)C(=O)NNc3ccc(S(C)(=O)=O)cc3)c2)c2c(c1)C(O)(C(F)(F)F)c1ccccc1-2` (stereo not shown) [Example 23, 2-(4-(9-hydroxy-2-methoxy-9-(trifluoromethyl)-9H-fluoren-4-yl)-1H-pyrazol-1-yl)-N'-(4-(methylsulfonyl)phenyl)propanehydrazide] was tested, and the inhibition at 1 µM was ≥ 50%.
